{"source": "paper PMC9436819", "about": "(JACC: Basic to Translational Science, 2022)", "origin": "cited, not measured here", "key": {"[1]": {"set-up": "method as in PMID 30044681, PMID 31035291", "conditions": "cited from earlier work"}, "[2]": {"tested_on": "patients with obstructive HCM", "set-up": "method as in PMID 32871100", "conditions": "cited from earlier work"}}}
{"smiles": "CC(C)n1c(=O)cc(N[C@@H](C)c2ccccc2)[nH]c1=O", "note": "[Mavacamten]", "values": [{"measurement": "Time required to reach a steady state", "setting": "[1]", "result": 6, "unit": "weeks"}, {"measurement": "LV outflow tract pressure gradients", "setting": "[2]", "result": "reduced"}, {"measurement": "Improving exercise capacity and health status", "setting": "[2]; vs placebo", "result": "superior to placebo"}]}
